According to paper PMC5513444, “The synthesis and evaluation of triazolopyrimidines as anti-tubercular agents” (Bioorganic & Medicinal Chemistry, 2017):
Values after ≈ are worked out from the molar mass of the structure shown. Read-outs that look alike come from different tables or passages of the source.

Legend:
[1] = system: Saccharomyces cerevisiae Y187; assay: MIC99 on solid medium, S. cerevisiae; details: YPD agar, 3–4 days
M. tuberculosis H37Rv [2] = assay: MIC99 on solid medium, M. tuberculosis; format: cell-based, Mycobacterium tuberculosis; details: solid medium 7H10-OADC, 4 weeks, lowest concentration yielding less than 1% growth
[3] = system: Pseudomonas aeruginosa HER1018 (PAO1); assay: MIC99 on solid medium, P. aeruginosa; format: cell-based; details: PAO1, 24 h, tryptic soy agar, 1 day
HepG2 cells = assay: Cytotoxicity against HepG2 cell line (CellTiter-Glo); format: cell-based; details: for Selectivity index (SI) = IC50/MIC90: HepG2 IC50 / M. tuberculosis MIC90; for IC50: Homo sapiens, 48 h, HepG2, 2 days incubation, read-out: IC50 (concentration required to reduce the viability of HepG2 cells by 50%)
M. tuberculosis = assay: Kill kinetics against M. tuberculosis in liquid culture; format: cell-based, Mycobacterium tuberculosis
Escherichia coli DH5α = assay: MIC99 on solid medium, E. coli; format: cell-based; details: 24 h, LB agar, 1 day
[4] = system: Mycobacterium smegmatis mc^2155; assay: MIC99 on solid medium, M. smegmatis; format: cell-based; details: Mycolicibacterium smegmatis, 3–4 days
M. tuberculosis H37Rv [5] = assay: MIC90 against M. tuberculosis in liquid medium; format: cell-based, Mycobacterium tuberculosis; details: liquid medium 7H9-Tw-OADC, aerobic, 5 days, average ± SD of two independent experiments, read-out: MIC (MIC90, minimum concentration required to inhibit growth of M. tuberculosis by 90%)
[6] = system: Bacillus subtilis Marburg; assay: MIC99 on solid medium, B. subtilis; format: cell-based; details: nutrient agar, 28 °C, 3–4 days
[7] = Mycobacterium tuberculosis, H37RV, 120 h

Structure (SMILES) | Selectivity index (SI) = IC50/MIC90 (HepG2 cells) | IC50 (HepG2 cells) [µM] | melting point [°C] | MIC90 (M. tuberculosis H37Rv [5]; [7]) [µM] | further results
COc1ccc(CCNc2cc(-c3ccccn3)nc3ncnn23)cc1 [Compound 16, N-(4-Methoxyphenethyl)-5-(pyridin-2-yl)-[1,2,4]triazolo[1,5-a]pyrimidin-7-amine] | >130 | > 100 | 172 to 173 | 0.83 ± 0.26 (≈ 0.288 µg/mL) | MIC99 S. cerevisiae [1]: >100 µM; MIC99 (M. tuberculosis H37Rv [2]; Mycobacterium tuberculosis, H37RV, 672 h): 13 µM (≈ 4.5 µg/mL); MIC99 (M. tuberculosis H37Rv [2]): < 20 µM; MIC99 [3]: > 100 µM; Kill of non-replicating M. tuberculosis (M. tuberculosis; non-replicating bacteria (starvation conditions, PBS-Ty), over 14–21 days): 2–3 log; Activity against replicating M. tuberculosis (kill kinetics) (M. tuberculosis; replicating bacteria in 7H9-Tw-OADC, over 21 days): static activity; MIC99 (Escherichia coli DH5α): > 100 µM; MIC99 [4]: > 100 µM; MIC99 [6]: > 100 µM
c1ccc(CCNc2cc(-c3ccccc3)nc3ncnn23)cc1 [Compound 39, N-Phenethyl-5-phenyl-[1,2,4]triazolo[1,5-a]pyrimidin-7-amine] | 3.5 | 27 | 164 to 165 | 7.7 ± 0.7 (≈ 2.43 µg/mL) | –
c1ccc(CCCNc2cc(-c3ccccc3)nc3ncnn23)cc1 [Compound 40, 5-Phenyl-N-(3-phenylpropyl)-[1,2,4]triazolo[1,5-a]pyrimidin-7-amine] | – | 8.7 | 143 to 145 | > 20 | –
c1ccc(-c2cc(NCCc3ccccn3)n3ncnc3n2)cc1 [Compound 41, 5-Phenyl-N-(2-(pyridin-2-yl)ethyl)-[1,2,4]triazolo[1,5-a]pyrimidin-7-amine] | – | > 100 | 111 to 114 | > 20 | –
c1ccc(-c2cc(NCCc3cccnc3)n3ncnc3n2)cc1 [Compound 42, 5-Phenyl-N-(2-(pyridin-3-yl)ethyl)-[1,2,4]triazolo[1,5-a]pyrimidin-7-amine] | – | > 100 | 169 to 171 | > 20 | –
c1ccc(-c2cc(NCCc3ccncc3)n3ncnc3n2)cc1 [Compound 43, 5-Phenyl-N-(2-(pyridin-4-yl)ethyl)-[1,2,4]triazolo[1,5-a]pyrimidin-7-amine] | – | > 100 | 231 to 233 | > 20 | –
CCc1ccc(CCNc2cc(-c3ccccc3)nc3ncnn23)cc1 [Compound 45, N-(4-Ethylphenethyl)-5-phenyl-[1,2,4]triazolo[1,5-a]pyrimidin-7-amine] | >138 | > 100 | 152 to 154 | 0.74 ± 0.1 (≈ 0.254 µg/mL) | –
Fc1ccc(CCNc2cc(-c3ccccc3)nc3ncnn23)cc1 [Compound 46, N-(4-Fluorophenethyl)-5-phenyl-[1,2,4]triazolo[1,5-a]pyrimidin-7-amine] | – | 50 | 169 to 170 | > 20 | –
FC(F)(F)c1ccc(CCNc2cc(-c3ccccc3)nc3ncnn23)cc1 [Compound 47, 5-Phenyl-N-(4-(trifluoromethyl)phenethyl)-[1,2,4]triazolo[1,5-a]pyrimidin-7-amine] | >38 | > 100 | 183 to 184 | 2.7 ± 0.7 (≈ 1.04 µg/mL) | –
COc1ccc(CC(=O)Nc2cc(-c3ccccc3)nc3ncnn23)cc1OC [Compound 50, 2-(3,4-Dimethoxyphenyl)-N-(5-phenyl-[1,2,4]triazolo[1,5-a]pyrimidin-7-yl)acetamide] | >10 | > 100 | 202 to 204 | 10 ± 1.1 (≈ 3.89 µg/mL) | –
c1ccc(CCNc2cc(-c3ccccn3)nc3ncnn23)cc1 [Compound 51, N-Phenethyl-5-(pyridin-2-yl)-[1,2,4]triazolo[1,5-a]pyrimidin-7-amine] | >46 | > 100 | 214 to 215 | 2.4 ± 1.3 (≈ 0.759 µg/mL) | –
c1ccc(CCNc2cc(-c3ccccn3)nc3ncnn23)nc1 [Compound 52, 5-(Pyridin-2-yl)-N-(2-(pyridin-2-yl)ethyl)-[1,2,4]triazolo[1,5-a]pyrimidin-7-amine] | – | > 100 | 156 to 157 | > 20 | –
c1ccc(-c2cc(NCCc3cccnc3)n3ncnc3n2)nc1 [Compound 53, 5-(Pyridin-2-yl)-N-(2-(pyridin-3-yl)ethyl)-[1,2,4]triazolo[1,5-a]pyrimidin-7-amine] | – | > 100 | 212 to 213 | > 20 | –
c1ccc(-c2cc(NCCc3ccncc3)n3ncnc3n2)nc1 [Compound 54, 5-(Pyridin-2-yl)-N-(2-(pyridin-4-yl)ethyl)-[1,2,4]triazolo[1,5-a]pyrimidin-7-amine] | – | > 100 | 201 to 202 | > 20 | –
Cc1ccc(CCNc2cc(-c3ccccn3)nc3ncnn23)cc1 [Compound 55, N-(4-Methylphenethyl)-5-(pyridin-2-yl)-[1,2,4]triazolo[1,5-a]pyrimidin-7-amine] | >196 | > 100 | 194 to 196 | 0.52 ± 0.1 (≈ 0.172 µg/mL) | –
CCc1ccc(CCNc2cc(-c3ccccn3)nc3ncnn23)cc1 [Compound 56, N-(4-Ethylphenethyl)-5-(pyridin-2-yl)-[1,2,4]triazolo[1,5-a]pyrimidin-7-amine] | 220 | 44 | 154 to 155 | 0.2 ± 0.02 (≈ 0.0689 µg/mL) | –
Fc1ccc(CCNc2cc(-c3ccccn3)nc3ncnn23)cc1 [Compound 57, N-(4-Fluorophenethyl)-5-(pyridin-2-yl)-[1,2,4]triazolo[1,5-a]pyrimidin-7-amine] | 17 | 81 | 190 to 192 | 4.8 ± 1.3 (≈ 1.6 µg/mL) | –
FC(F)(F)Oc1ccc(CCNc2cc(-c3ccccn3)nc3ncnn23)cc1 [Compound 59, 5-(Pyridin-2-yl)-N-(4-(trifluoromethoxy)phenethyl)-[1,2,4]triazolo[1,5-a]pyrimidin-7-amine] | >72 | > 100 | 163 to 165 | 1.6 ± 1.1 (≈ 0.641 µg/mL) | –
COc1ccc(CCN(C)c2cc(-c3ccccc3)nc3ncnn23)cc1 [Compound 61, N-(4-Methoxyphenethyl)-N-methyl-5-phenyl-[1,2,4]triazolo[1,5-a]pyrimidin-7-amine] | – | 17 | 170 to 171 | > 20 | –
COc1ccc(C2CCN(c3cc(-c4ccccn4)nc4ncnn34)C2)cc1 (centres unmarked) [Compound 62, 7-(3-(4-Methoxyphenyl)pyrrolidin-1-yl)-5-(pyridin-2-yl)-[1,2,4]triazolo[1,5-a]pyrimidine] | – | 23 | 222 to 223 | > 20 | –
COc1ccc(CCNc2cc(-c3ccccn3)nc3nc(C)nn23)cc1 [Compound 67, N-(4-Methoxyphenethyl)-2-methyl-5-(pyridin-2-yl)-[1,2,4]triazolo[1,5-a]pyrimidin-7-amine] | >26 | > 100 | 139 to 141 | 3.9 ± 0.21 (≈ 1.41 µg/mL) | –
COc1ccc(CCNc2cc(-c3ccccn3)nc3nc(-c4ccccc4)nn23)cc1 [Compound 68, N-(4-Methoxyphenethyl)-2-phenyl-5-(pyridin-2-yl)-[1,2,4]triazolo[1,5-a]pyrimidin-7-amine] | – | > 100 | 146 to 148 | > 20 | MIC90 (M. tuberculosis H37Rv [5]): >20 µM
COc1ccc(CCNc2cc(-c3ccccn3)nc3ccnn23)cc1 [Compound 69, N-(4-Methoxyphenethyl)-5-(pyridin-2-yl)pyrazolo[1,5-a]pyrimidin-7-amine] | 9 | 23 | 116 to 117 | 2.5 ± 0.15 (≈ 0.864 µg/mL) | –
COc1ccc(CCNc2cc(-c3ccccn3)nc3nccn23)cc1 [Compound 70, N-(4-Methoxyphenethyl)-7-(pyridin-2-yl)imidazo[1,2-a]pyrimidin-5-amine] | 142 | 30 | 234 to 235 | 0.22 ± 0.07 (≈ 0.076 µg/mL) | –
